“Also recorded” adds a separate entry of the source. Like-named read-outs stand apart in the source and are kept apart here.
Key:
[1] = test system: 5/6 nephrectomized uremic rats; assay: Left ventricular hypertrophy in 5/6 nephrectomized uremic rats; type: in vivo, Sprague Dawley rats; conditions: 5/6 NX rats; for cardiomyocyte morphology: hematoxylin-eosin
Procedure: The experimental conditions using the 5/6 (subtotal) nephrectomized rats were as described above. Twenty-four hours after the last dose, the rats were anesthetized with pentobarbital sodium (35 mg/kg, i.p.). The animals were sacrificed by cervical dislocation. The hearts were taken and washed with cold saline. After removing the residual saline with filter paper, the weight of the freshly dissected hearts and left ventricles were measured, and the ratio of left ventricle weight to body weight (LVW/BW) and/or left ventricle weight to heart weight (LVW/HW) were calculated. Thereafter, the left ventricles were rapidly put into liquid nitrogen until ready for histological and immunohistochemical analysis.
To examine the cardiomyocyte morphology, the left ventricular tissue was fixed in a 4% formaldehyde-phosphate-buffered saline (pH 7.4) solution overnight. The samples were embedded in wax and cut into 4 μm sections. The sections were stained with hematoxylin-eosin and examined under a microscope.
To determine the diameter of cardiomyocytes, a previously published method was followed (Xiang et al., 2005, Am J Physiol Endocrinol Metab 288: E125-132). The sections of left ventricles were stained with FITC-labeled wheat germ agglutinin (1:5 dilution) for 2 h at room temperature and then examined under a fluorescence microscope to visualize the myocyte membrane. The relative size of the cardiomyocytes was quantified by measuring the diameter of the myocytes, which was the distance between the two plasma membranes of a cell in longitudinal section. The measurement was done using ImageJ software. Data were obtained from 30 cells randomly selected from 5-10 microscopic fields of left ventricle slides.
Group mean±SEM are presented. Differences between SHAM, vehicle, and treated animals were assessed using a t-test, a one-way ANOVA followed by a Dunnett's post-hoc test, or a two-way ANOVA, followed by a Bonferonni post-hoc test. Similar to the human CKD condition, the 5/6 (subtotal) nephrectomized rats are known to develop left ventricular hypertrophy (Wolf et al., 2000, Journal of Cardiovascular Pharmacology 36: S348-350). Some animals were sacrificed before treatment to evaluate the development of left ventricular hypertrophy.

[2] = test system: CYP24A1; assay: CYP24A1 expression induction in primary culture of human coronary artery smooth muscle cells; type: cell-based; conditions: HCASMC
Procedure: (§1) Compounds were tested in a primary culture of HCASMC to assess their potency in inducing the expression of CYP24A1 and VDR.
(§2) Primary culture of HCASMC was grown in smooth muscle growth medium SmGM-2 containing 5.5 mM glucose, 5% FBS, 50 μg/ml gentamicin, 50 ng/ml amphotericin-B, 5 μg/ml insulin, 2 ng/ml hFGF, and 0.5 ng/ml hEGF at 37° C. in a humidified 5% CO2-95% air. Cells were grown to >80% confluence and used within five passages.
(§3) Cells were plated into 6 well plates and treated with test agent for 24 h. Cells were lysed with the addition of 1 mL of Trizol and RNA prepared according to the manufacturer's protocol.
(§4) Real-time reverse transcription-PCR was performed with the forward and reverse PCR primers and […] of the TAQMAN™ probe specifically designed for CYP24A1 or VDR. (A TAQMAN™ probe is comprised of a fluorophore covalently attached to the 5′-end of the oligonucleotide probe and a quencher at the 3′-end.) After the data acquisition, the CYP24A1 or VDR mRNA expression level was normalized to the GAPDH mRNA level. […] Group mean±STDEV (standard deviation) are presented.

[3] = test system: normal mice; assay: Hypercalcemic side effect profile and serum PTH in normal mice; type: in vivo, Male C57/BL mice; conditions: for dose at which compound starts to raise serum Ca: i.p. dosing once daily for 3 consecutive days
Procedure: The normal mice model is a convenient and quick way to assess the hypercalcemic side effect profile of compounds. At the same time, data on serum PTH can be collected.
Male C57/BL mice at 18-20 g are dosed with the test agent at 100 al/mouse (concentrations as indicated) i.p. once daily for 3 consecutive days or at 10 ml/kg, p.o. gavage, once daily for 5 days. The animals were harvested 24 h after the last dose by anesthetization with ketamine/xylazine. Blood was collected from the aorta. Serum total calcium was measured using the QuantiChrom Calcium Assay kit and/or the Roche Hitachi 912 Chemistry Analyzer. Serum PTH was measured using a PTH Immunoassay. Vehicle control was 100 l/mouse of 5% EtOH/95% propylene glycol for i.p. dosing or 10 ml/kg of 20% Hydroxypropyl-β-Cyclodextrin for p.o. gavage dosing.
For serum chemistry data, group mean±SEM are presented. Differences between vehicle and compound-treated groups are assessed using a one-way ANOVA followed by a Dunnett's post-hoc test. FIGS. 3A and 3B show the results from a typical p.o. gavage dosing study (n=4-9 per group).

[4] = test system: 5/6 nephrectomized uremic rats; assay: Endothelial function (aortic ring relaxation) in 5/6 nephrectomized uremic rats; type: in vivo, Sprague Dawley rats; conditions: 5/6 NX rats; for acetylcholine-induced endothelial-dependent aortic relaxation / sodium nitroprusside (SNP)-induced endothelial-independent relaxation: 2-week treatment, aortic rings precontracted with PE
Procedure: The experimental conditions using the 5/6 (subtotal) nephrectomized rats were as described above. Twenty-four hours after the last dose, the animals were sacrificed, and the aorta tissues were harvested for the determination of endothelial function.
Rats were anesthetized with pentobarbital sodium (i.p., 35 mg/kg). Thoracic aortas were excised in a cold modified Krebs solution (see below) and a 3 mm aortic ring was suspended in 10 mL tissue baths under 0.5 grams of resting tension in a modified Krebs solution containing (g/L): NaCl 6.9169, KCl 0.3499, NaHCO3 2.0998, MgSO4 0.2901, KH2 PO4 0.1604, CaCl2 0.2663, glucose 1.9994, EDTA 0.026, equilibrated with 5% CO2-95% 02 (pH 7.4 at 37° C.). Aortas were sensitized by the addition of phenylephrine (PE, 3 μM) with 10 min washouts between intervals. Aortas were precontracted with PE (3 μM), and the endothelium-dependent vasodilator acetylcholine (ACh) was added in half-log increments (10^−9 mol/L-10^−4.5 mol/L) at 3-5 min intervals, allowing time for the effect of ACh to plateau. After a 60 min washout, aortas were precontracted with PE (3 μM) and subsequently treated with endothelial-independent vasodilator sodium nitroprusside (SNP; 10^−9 mol/L-10^−6 mol/L) at 3-5 min intervals, allowing time for the effect to plateau. Data were recorded with the BL-420F Data Acquisition & Analysis System.
ACh and SNP-induced relaxation were calculated as the % relaxation of the PE-induced precontraction. Differences in vascular function were determined using a two-way ANOVA, followed by a Bonferonni post-hoc test. […] SNP serves as a source of nitric oxide and induces relaxation via an endothelial-independent pathway.

[5] = test system: VDR; assay: VDR expression induction in primary culture of human coronary artery smooth muscle cells; type: cell-based; conditions: HCASMC
Procedure: as §1, §2, §3, §4

[6] = 2 weeks of treatment, 8 weeks after surgery
[7] = 24 h, Table 4 summary, some values average of 2 or more determinations, read-out: EC50 for CYP24A1 induction
[8] = 24 h, Table 4 summary, some values average of 2 or more determinations, read-out: EC50 for VDR induction

Row | SMILES | cardiomyocyte morphology ([1]; 0.01 μg/kg) | effect on LVW/BW ([1]; 0.04 μg/kg alone, 3×/week, i.p. for 2 weeks) | effect on LVW/BW ([1]; 0.04 μg/kg plus losartan (0.025 mg/ml in drinking water)) | cardiomyocyte morphology ([1]; 0.16 μg/kg, 3×/week, i.p. for 2 weeks) | cardiomyocyte diameter ([1]; 0.01-0.64 μg/kg, 2 weeks of treatment, FIG. 19) | effect on LVW/BW (left ventricle weight to body weight) [1, 6] | effect on LVW/HW (left ventricle weight to heart weight) [1, 6] | EC50 [2, 7] [nM] | EC50 ([2]; typical study, FIG. 5A, read-out: EC50 for inducing CYP24A1 expression) [nM] | dose at which compound starts to raise serum Ca [3] [µg/kg] | dose at which compound starts to raise serum calcium ([3]; p.o. gavage once daily for 5 days, FIG. 3A) [µg/kg] | dose at which compound starts to suppress PTH ([3]; p.o. gavage once daily for 5 days, FIG. 3B) [µg/kg] | acetylcholine-induced endothelial-dependent aortic relaxation [4] | sodium nitroprusside (SNP)-induced endothelial-independent relaxation [4] | EC50 [5, 8] [nM] | EC50 ([5]; typical study, FIG. 5B, read-out: EC50 for inducing VDR expression) [nM] | effect on LVW/BW ([1]; 0.16 and 0.64 μg/kg, FIG. 17) | acetylcholine-induced endothelial-dependent relaxation ([4]; treatment with 0.16 and 0.64 μg/kg)
1 | C=C1[C@H](O)CC(=C/C=C2\CCCC3(C)C2CCC3[C@@H](C)OC[C@H](C)C(C)(C)O)C[C@H]1O (stereo partly drawn) [Vida-5, (1R,3R)-5-((E)-2-((3αS,7αS)-1-((R)-1-((S)-3-hydroxy-2,3-dimethylbutoxy)ethyl)-7α-methyldihydro-1H-inden-4(2H,5H,6H, 7H, 7αH)-ylidene)ethylidene)-2-methylenecyclohexane-1,3-diol] | improved the morphology of the cardiomyocytes | completely normalized LVW/BW | completely normalized LVW/BW | nearly restored the morphology of the cardiomyocytes back to the Sham level | decreases cardiomyocytes diameter; also recorded: significantly reduced | significantly reduces; also recorded: dose-dependent effect on reducing | significantly reduces; also recorded: dose-dependent effect on reducing | 2 | 2.9 | 1 | 5 | 0.05 | improves; also recorded: dose-dependent improvement; also recorded: potent in improving endothelial function | no significant effect | 3.2 | 1.3 |  | 
2 | CCC(O)(CC)CCO[C@H](C)C1CCC2/C(=C/C=C3C[C@@H](O)C4(CC4)[C@H](O)C3)CCCC21C (stereo partly drawn) [Vida-10, (4R,8R)-6-((E)-2-((1S,7αS)-1-((R)-1-(3-ethyl-3-hydroxypentyloxy)ethyl)-7α-methyldihydro-1H-inden-4(2H,5H,6H,7H,7αH)-ylidene)ethylidene)spiro[2.5]octane-4,8-diol] |  |  |  |  |  | dose-dependent effect on reducing |  | 0.39 |  | 1 |  |  | improves endothelial function; also recorded: dose-dependent improvement; also recorded: potent in improving endothelial function | no significant effect | 0.61 |  | significantly reduced | back to the Sham level
3 | C=C1[C@H](O)CC(=C/C=C2\CCCC3(C)C2CCC3[C@@H](C)OCCC(O)(CC)CC)C[C@H]1O (stereo partly drawn) [Vida-11, (1R,3R)-5-((E)-2-((1S,3αS,7αS)-1-((R)-1-(3-ethyl-3-hydroxypentyloxy)ethyl)-7α-methyldihydro-1H-inden-4(2H, 5H, 6H, 7H, 7αH)-ylidene)ethylidene)-2-methylenecyclohexane-1,3-diol] |  |  |  |  |  | reduced LVW/BW at the two lower doses, but not at 0.16 μg/kg |  | 0.39 |  | 0.1 |  |  | improves; also recorded: dose-dependent improvement; also recorded: potent in improving endothelial function | no significant effect | 1.4 |  |  | 
